Values of other authors in patent US20220313582A1, “METHOD FOR DYEING KERATINOUS MATERIAL, COMPRISING THE USE OF AN ORGANOSILICON COMPOUND, A CHROMOPHORIC COMPOUND AND A FILM-FORMING POLYMER II” (Henkel AG & Co. KGaA, priority 2019, published 2022).

Settings: for solubility in water: 25° C.

Row | solubility in water (in words) (at 25° C.) | SMILES | solubility in water
1 |  | O=S(=O)([O-])c1ccc(N=Nc2c(O)ccc3ccccc23)cc1.[Na+] [Acid Orange 7, sodium salt of 4-[(2-hydroxy-1-naphthyl)azo]benzene sulphonate] | more than 7 g/L
2 |  | O=C([O-])c1c(Cl)c(Cl)c(Cl)c(Cl)c1-c1c2c(Br)cc(=O)c(Br)c-2oc2c(Br)c(O)cc(Br)c12.O=C([O-])c1c(Cl)c(Cl)c(Cl)c(Cl)c1-c1c2c(Br)cc(=O)c(Br)c-2oc2c(Br)c(O)cc(Br)c12.[Na+].[Na+] [Acid Red 92, disodium salt of 3,4,5,6-tetrachloro-2-(1,4,5,8-tetrabromo-6-hydroxy-3-oxoxanthen-9-yl)benzoic acid] | greater than 10 g/L
3 |  | Nc1cc(S(=O)(=O)[O-])cc2cc(S(=O)(=O)[O-])c(N=Nc3ccccc3)c(O)c12.[Na+].[Na+] [Acid Red 33, disodium salt of 5-amino-4-hydroxy-3-(phenylazo)-naphthalene-2,7-disulphonate] | 2500 µg/mL
4 | highly soluble | O=C([O-])C1=NN(c2ccc(S(=O)(=O)[O-])cc2)C(=O)C1N=Nc1ccc(S(=O)(=O)[O-])cc1.[Na+].[Na+].[Na+] (stereo not shown) [Acid Yellow 23, trisodium salt of 4,5-dihydro-5-oxo-1-(4-sulfophenyl)-4-((4-sulfophenyl)azo)-1H-pyrazole-3-carboxylic acid] | 
